Measured values reported in PubChem BioAssay (NCI).
“And” between values parts separate entries of the source, which are not always exact repeats. Equal values may be shown once.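 How tested: cells in 96-well plates exposed to compound for 48 hours at five concentrations. Here, GI50 denotes the concentration required for 50% inhibition of growth. At the TGI there is no net growth.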

Key:
Experiment in all cases: NCI-60 cell line screen, 48 h
RXF 393 renal = system: RXF 393 renal
KM12 colon = system: KM12 colon
NCI/ADR-RES ovarian = system: NCI/ADR-RES ovarian
EKVX NSCLC = system: EKVX NSCLC
DLD-1 colon = system: DLD-1 colon
SNB-19 CNS = system: SNB-19 CNS
M19-MEL melanoma = system: M19-MEL melanoma
MCF7 breast = system: MCF7 breast
K-562 leukemia = system: K-562 leukemia
MDA-MB-435 = system: MDA-MB-435

Structure (SMILES) | TGI (RXF 393 renal) | TGI (KM12 colon) [µM] | TGI (NCI/ADR-RES ovarian) [µM] | TGI (EKVX NSCLC) [µM] | TGI (DLD-1 colon) | TGI (SNB-19 CNS) [µM] | TGI (M19-MEL melanoma) | TGI (MCF7 breast) [µM] | TGI (K-562 leukemia) | TGI (MDA-MB-435) [µM] | GI50 (RXF 393 renal) [µM] | GI50 (DLD-1 colon) [µM] | GI50 (M19-MEL melanoma) | GI50 (K-562 leukemia) [µM] | GI50 (EKVX NSCLC) | GI50 (SNB-19 CNS) [µM]
CNC(=O)NC(CCCCNC(=O)OCc1ccccc1)C(=O)OCc1ccccc1 (stereo unspecified) | 53.6 µM | > 100 | > 100 | > 100 | > 100 µM | > 100 | 40.7 µM | > 100 | 89.4 µM | 39.5 |  |  |  |  |  | 
OCC1OC(n2cnc3c2NC=NC[C@H]3O)CC1O (stereo partly specified) | 500 µM and > 588 µM | 500 | 500 | 500 | 500 µM and > 588 µM | 500 | 460 µM and > 588 µM | 500 | 474 µM and > 588 µM | > 500 | > 588 | > 588 | > 588 µM | > 588 |  | 
Brc1ccccc1C=NC12CC3CC(CC(C3)C1)C2 | > 100 µM | > 100 | > 100 | > 100 | > 100 µM | > 100 | > 100 µM | > 100 | > 100 µM | > 100 |  |  |  |  |  | 
O=C1c2cc([N+](=O)[O-])cc3cc([N+](=O)[O-])cc(c23)C(=O)N1CCCNCCNCCCN1C(=O)c2cc([N+](=O)[O-])cc3cc([N+](=O)[O-])cc(c23)C1=O | 0.375 µM | 2.51 | > 100 | 10 | 3.24 µM | > 23.3 | 0.752 µM | 11.7 | 14.9 µM |  |  |  |  |  |  | 
CSc1nc(C)c(Br)c(=O)n1C1OC(COC(C)=O)C(OC(C)=O)C(OC(C)=O)C1OC(C)=O (stereo unspecified) | 49.2 µM and 40.7 µM | > 100 | > 100 | > 100 | > 100 µM | > 100 | > 100 µM | > 100 | > 100 µM | > 100 |  |  | > 100 µM and 44.6 µM |  | > 100 µM and 42.9 µM | 51.8
